Measurements as given in paper PMC9696794, “Synthesis and Antimicrobial Activity of Short Analogues of the Marine Antimicrobial Peptide Turgencin A: Effects of SAR Optimizations, Cys-Cys Cyclization and Lipopeptide Modifications” (International Journal of Molecular Sciences, 2022).
Converted amounts (≈) assume the structure as drawn. Where a SMILES comes first, the peptide text is derived from it. Bridges are numbered along the chain shown (N, C = ends). The star is where a group is joined. Lauroyl = CCCCCCCCCCCC(=O)*; Decanoyl = CCCCCCCCCC(=O)*

How the values were obtained:
[1] = tested on: C. glutamicum (Cg, ATCC 13032); assay: microbe, parasite or virus in culture; type: cell-based, Corynebacterium glutamicum; conditions: ATCC 13032, 24 h
How it was run: (§1)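 Cultures grown in Mueller–Hinton broth were adjusted by OD600 to 2.5–3 × 10^4 CFU/mL and mixed with two-fold peptide dilutions from 256 to 1 µg/mL. Plates were incubated at 35 °C with OD595 monitored every hour for 24 h.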

[2] = tested on: C. albicans (Ca, ATCC 10231); assay: microbe, parasite or virus in culture; type: cell-based, Candida albicans; conditions: ATCC 10231, 48 h
How it was run: (§2)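 Overnight cultures in potato dextrose broth with 2% glucose at 25–30 °C were diluted to approx. 4 × 10^5 spores/mL and mixed 1:1 with two-fold peptide dilutions plated at 256 to 1 µg/mL. After 48 h at room temperature, OD600 was read. MIC was the lowest concentration giving OD below 10% of the growth control, in triplicate.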

A. pullulans (Ap) = assay: microbe, parasite or virus in culture; type: cell-based, Aurobasidium pollulans; conditions: 48 h
How it was run: as §2

all bacterial strains = assay: Antibacterial MIC assay, all bacterial strains together (range or geometric mean); type: cell-based; conditions: for GM (geometric mean of the MIC values against all bacterial strains): Table 1, six bacterial strains; for GM of MIC Tot. bact.: Table S3, all bacterial test strains, MIC >256 set to 256
How it was run: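 Broth microdilution in Mueller–Hinton broth against B. subtilis, C. glutamicum, S. aureus, S. epidermidis RP62A, E. coli and P. aeruginosa; inoculum 2.5–3 × 10^4 CFU/mL, 35 °C, OD595 read hourly for 24 h. MIC: lowest peptide concentration giving OD below 10% of growth control; geometric mean across strains, triplicate.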

[3] = tested on: B. subtilis (Bs, ATCC 23857); assay: microbe, parasite or virus in culture; type: cell-based, Bacillus subtilis; conditions: ATCC 23857, 24 h
How it was run: as §1

[4] = tested on: E. coli NR698 (outer membrane permeable mutant, imp4213); assay: microbe, parasite or virus in culture; conditions: MC4100 NR698 imp4213, deficient outer membrane
How it was run: (§3)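 Broth microdilution in Mueller–Hinton medium, 2.5–3 × 10^4 CFU/mL inoculum, two-fold peptide dilutions from 256 to 1 µg/mL, 35 °C with OD595 read hourly for 24 h. MIC is the lowest concentration giving OD below 10% of the untreated growth control; run in triplicate.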

[5] = tested on: E. coli MC4100 (wild type, WT); assay: microbe, parasite or virus in culture; conditions: wild type
How it was run: as §3

[6] = tested on: S. aureus (Sa, ATCC 9144); assay: microbe, parasite or virus in culture; type: cell-based, Staphylococcus aureus; conditions: ATCC 9144, 24 h
How it was run: as §1

[7] = tested on: S. epidermidis RP62A (Se, ATCC 35984); assay: microbe, parasite or virus in culture; type: cell-based, Staphylococcus epidermidis; conditions: ATCC 35984, 24 h
How it was run: as §1

E. coli (Ec, ATCC 25922) = assay: microbe, parasite or virus in culture; type: cell-based, Escherichia coli; conditions: ATCC 25922, 24 h
How it was run: as §1

[8] = tested on: Gram-positive bacterial strains; conditions: Table S3; MIC >256 set to 256
How it was run: as §1

[9] = tested on: P. aeruginosa (Pa, ATCC 27853); assay: microbe, parasite or virus in culture; type: cell-based, Pseudomonas aeruginosa; conditions: ATCC 27853, 24 h
How it was run: as §1

[10] = tested on: Gram-negative bacterial strains (E. coli and P. aeruginosa); assay: Antibacterial MIC assay, Gram-negative strains together (range or geometric mean); type: cell-based; conditions: Table S3; MIC >256 set to 256
How it was run: as §1

[11] = tested on: fungi (A. pullulans, C. albicans, Rhodotorula sp.); assay: Antifungal MIC assay, all fungi together (range or geometric mean); type: cell-based; conditions: Table S3; MIC >128 set to 128
How it was run: as §2

[12] = tested on: human red blood cells (RBC); assay: Haemolytic activity assay; type: cell-based; conditions: for Selectivity index (SI) G-: EC50/GM of Gram-negative strains; for Selectivity index (SI) G+: EC50/GM of Gram-positive strains; for SI (selectivity index = EC50/GM): haemolytic EC50 over GM of MIC against all bacterial strains, Table 1; for RBC Tox. (EC50), haemolytic activity: human RBC, 1 h, 37 °C, concentration giving 50% haemolysis; for Selectivity index (SI) Fungi: EC50/GM of fungi
How it was run: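 Washed human erythrocytes (1% hematocrit final) incubated 1 h at 37 °C with agitation with lipopeptides at 500–3.9 μM in PBS (≤1% DMSO), duplicates. Haemoglobin release read at 545 nm relative to 0.1% Triton X-100; EC50 is 50% haemolysis, averaged from three experiments.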

Rhodotorula sp. (Rh) = assay: microbe, parasite or virus in culture; type: cell-based; conditions: 48 h
How it was run: as §2

[13] = Table S3, highest tested concentration used where EC50 above it

Row | Structure (SMILES) | Antimicrobial Activity (MIC) Gram + Cg [1] [µg/mL] | Antimicrobial Activity (MIC) Fungi Ca [2] [µg/mL] | Antimicrobial Activity (MIC) Fungi Ap (A. pullulans (Ap)) [µg/mL] | GM (geometric mean of the MIC values against all bacterial strains) (all bacterial strains) [µg/mL] | GM of MIC Tot. bact. (all bacterial strains) [µg/mL] | Antimicrobial Activity (MIC) Gram + Bs [3] [µg/mL] | MIC E. coli NR698 (mutant) [4] [µg/mL] | MIC E. coli MC4100 (WT) [5] [µg/mL] | Antimicrobial Activity (MIC) Gram + Sa [6] [µg/mL] | Antimicrobial Activity (MIC) Gram + Se [7] [µg/mL] | Antimicrobial Activity (MIC) Gram − Ec (E. coli (Ec, ATCC 25922)) [µg/mL] | GM of MIC G+ [8] [µg/mL] | Antimicrobial Activity (MIC) Gram − Pa [9] [µg/mL] | GM of MIC G- [10] [µg/mL] | GM of MIC Fungi [11] [µg/mL] | Selectivity index (SI) G- [12, 13] | Selectivity index (SI) G+ [12, 13] | SI (selectivity index = EC50/GM) [12] | RBC Tox. (EC50), haemolytic activity [12] [µg/mL] | Antimicrobial Activity (MIC) Fungi Rh (Rhodotorula sp. (Rh)) [µg/mL] | also measured
1 | CCCCCCCCCC(=O)N[C@H]1CSSC[C@@H](C(=O)N[C@@H](CCCNC(=N)N)C(=O)N[C@@H](CC(C)C)C(N)=O)NC(=O)[C@H](CCCNC(=N)N)NC(=O)[C@H](Cc2c[nH]c3ccccc23)NC(=O)[C@H](Cc2c[nH]c3ccccc23)NC(=O)CNC(=O)[C@H](Cc2c[nH]c3ccccc23)NC(=O)[C@H](CCCNC(=N)N)NC(=O)[C@H](CCCNC(=N)N)NC(=O)CNC1=O [Peptide C10-cTurg-6, C10- (CGRRWGWWRC)RL-NH2] (Decanoyl-CGRRWGWWRCRL-NH2; disulfide 1-10) | 4 | 64 | 64 | 8 | 8 | 4 | 8 (≈ 4.48 µM) | 8 (≈ 4.48 µM) | 8 | 8 | 16 | 6 | 16 | 16 | 51 | 1 | 3 | 2 | 16 | 32 | 
2 | CCCCCCCCCCCC(=O)N[C@H]1CSSC[C@@H](C(=O)N[C@@H](CCCCN)C(=O)N[C@@H](CC(C)C)C(N)=O)NC(=O)[C@H](CCCCN)NC(=O)[C@H](Cc2c[nH]c3ccccc23)NC(=O)CNC(=O)[C@H](Cc2c[nH]c3ccccc23)NC(=O)[C@H](Cc2c[nH]c3ccccc23)NC(=O)[C@H](CCCCN)NC(=O)[C@H](CCCCN)NC(=O)CNC1=O [Peptide C12-cTurg-2, C12- (CGKKWWGWKC)KL-NH2] (Lauroyl-CGKKWWGWKCKL-NH2; disulfide 1-10) | 8 | 64 | 32 | 9 | 9 | 4 | 8 (≈ 4.7 µM) | 8 (≈ 4.7 µM) | 8 | 8 | 16 | 7 | 16 | 16 | 40 | 2 | 5 | 4 | 32 | 32 | Selectivity index (SI) Fungi [12, 13]: 1
3 | CCCCCCCCCCCC(=O)N[C@H]1CSSC[C@@H](C(=O)N[C@@H](CCCNC(=N)N)C(=O)N[C@@H](CC(C)C)C(N)=O)NC(=O)[C@H](CCCNC(=N)N)NC(=O)[C@H](Cc2c[nH]c3ccccc23)NC(=O)[C@H](Cc2c[nH]c3ccccc23)NC(=O)CNC(=O)[C@H](Cc2c[nH]c3ccccc23)NC(=O)[C@H](CCCNC(=N)N)NC(=O)[C@H](CCCNC(=N)N)NC(=O)CNC1=O [Peptide C12-cTurg-6, C12- (CGRRWGWWRC)RL-NH2] (Lauroyl-CGRRWGWWRCRL-NH2; disulfide 1-10) | 8 | 128 | 64 | 14 | 14 | 8 | 16 (≈ 8.82 µM) | 16 (≈ 8.82 µM) | 16 | 8 | 32 | 10 | 32 | 32 | 81 |  | 1 |  | 9 | 64 | Selectivity index (SI) Tot. bact. ([12]; Table S3, EC50/GM of all bacterial strains, highest tested concentration used where EC50 above it): 1
4 | CC(C)C[C@H](NC(=O)[C@H](CCCCN)NC(=O)[C@@H]1CSSC[C@H](N)C(=O)NCC(=O)N[C@@H](CCCCN)C(=O)N[C@@H](CCCCN)C(=O)N[C@@H](Cc2c[nH]c3ccccc23)C(=O)N[C@@H](Cc2c[nH]c3ccccc23)C(=O)NCC(=O)N[C@@H](Cc2c[nH]c3ccccc23)C(=O)N[C@@H](CCCCN)C(=O)N1)C(N)=O [cTurg-2] (H-CGKKWWGWKCKL-NH2; disulfide 1-10; N-terminus assumed) | 4 | 32 | 32 | 20 | 20 | 8 | 8 (≈ 5.26 µM) | 16 (≈ 10.5 µM) | 32 | 16 | 64 | 11 | 64 | 64 | 32 | > 16 | > 92 | >52 | >1045 | 32 | Selectivity index (SI) Fungi [12, 13]: > 33
